The test deals with CDK2 (human) (UniProt P24941). Description: Enzyme Assay.

A word on the IC50: it is the concentration that gives 50% inhibition. A lower IC50 goes with higher potency. For the compound `COc1nc(C)c(-c2ccnc(Nc3cccc([N+](=O)[O-])c3)n2)s1`, the IC50 was 60 nM.

`COc1nc(C)c(-c2ccnc(Nc3ccc(O)cc3)n2)s1` returned an IC50 of 50 nM.

Compound `COc1nc(C)c(-c2ccnc(Nc3ccc(F)c(C)c3)n2)s1` registered an IC50 of 130 nM. This IC50 is about 2.6-fold higher than that of the compound before.

For `Cc1nc(N)sc1-c1ccnc(Nc2ccc(C(F)(F)F)cc2)n1`, the IC50 turned out to be 680 nM. This IC50 is about 5.2-fold higher than that of the compound before.

Consider `COc1nc(C)c(-c2ccnc(Nc3ccc(C)c([N+](=O)[O-])c3)n2)s1`, for which the half-maximal inhibitory concentration (IC50) stood at 110 nM.

For the compound `COc1nc(C)c(-c2ccnc(Nc3ccc(Cl)c(C)c3)n2)s1`, the concentration for half-maximal inhibition (IC50) turned out to be 1180 nM.

For the compound `COc1nc(C)c(-c2ccnc(Nc3ccc(F)cc3)n2)s1`, the IC50 came out at 120 nM.

Compound `COc1nc(C)c(-c2ccnc(Nc3ccc(F)c([N+](=O)[O-])c3)n2)s1` yielded a half-inhibitory concentration (IC50) of 120 nM.

In turn, `COc1nc(C)c(-c2ccnc(Nc3ccc(N(C)C)cc3)n2)s1` displayed an IC50 of 750 nM.

In turn, `COc1nc(C)c(-c2ccnc(Nc3ccc(C)c(I)c3)n2)s1` came in with an IC50 of 700 nM.

Take `COc1nc(C)c(-c2ccnc(Nc3ccc(Cl)cc3)n2)s1`: the IC50 was determined as 110 nM.

With `COc1nc(C)c(-c2ccnc(Nc3cccc(O)c3)n2)s1`, the IC50 came out at 120 nM.

For `COc1ccc(Nc2nccc(-c3sc(C)nc3C)n2)cc1O`, the IC50 stood at 140 nM. The IC50 values of the last two compounds are within 1.5-fold of each other.

For `Cc1nc(C)c(-c2ccnc(Nc3ccc(CCO)cc3)n2)s1`, the half-inhibitory concentration (IC50) was 470 nM.

In the case of `COc1ccc(Nc2nccc(-c3sc(OC)nc3C)n2)cc1`, the IC50 worked out at 250 nM.
